Legend:
[1] = system: α-SMA, CD31, endothelin-I, fibronectin, VE-cadherin, phospho-eNOS and total eNOS; assay: Protein expression (western blot, immunocytochemistry) in 3D HTM/SC constructs; type: cell-based, human; conditions: levcromakalim 1, 10 or 100 μM, Y-27632 10 μM
Description: Bioengineered 3D conventional outflow tract constructs using 4 donors (ages 47-91) were treated with […] (5 ng/mL) for 6 days. […] Protein expression of α-smooth muscle actin (α-SMA), CD31, endothelin-I, fibronectin, VE-cadherin, phospho-eNOS and total eNOS was analyzed via western blot. Cellular expression of α-SMA, fibronectin, phospho-eNOS and total eNOS was determined by immunocytochemistry and confocal microscopy. Statistical significance was determined by one-way ANOVA with a Tukey's multiple comparisons test, or by two-way ANOVA.

[2] = molecular target: T1, human Kir6.2/SUR2B KATP channel (Homo sapiens, UniProt O60706); assay: FLIPR membrane potential assay in HEK-Kir6.2/SUR2B cells; type: cell-based; conditions: glibenclamide 10 μM
T1 construct: expressed in transfected cells
T1 sequence (O60706 1-1549 isoform O60706-2): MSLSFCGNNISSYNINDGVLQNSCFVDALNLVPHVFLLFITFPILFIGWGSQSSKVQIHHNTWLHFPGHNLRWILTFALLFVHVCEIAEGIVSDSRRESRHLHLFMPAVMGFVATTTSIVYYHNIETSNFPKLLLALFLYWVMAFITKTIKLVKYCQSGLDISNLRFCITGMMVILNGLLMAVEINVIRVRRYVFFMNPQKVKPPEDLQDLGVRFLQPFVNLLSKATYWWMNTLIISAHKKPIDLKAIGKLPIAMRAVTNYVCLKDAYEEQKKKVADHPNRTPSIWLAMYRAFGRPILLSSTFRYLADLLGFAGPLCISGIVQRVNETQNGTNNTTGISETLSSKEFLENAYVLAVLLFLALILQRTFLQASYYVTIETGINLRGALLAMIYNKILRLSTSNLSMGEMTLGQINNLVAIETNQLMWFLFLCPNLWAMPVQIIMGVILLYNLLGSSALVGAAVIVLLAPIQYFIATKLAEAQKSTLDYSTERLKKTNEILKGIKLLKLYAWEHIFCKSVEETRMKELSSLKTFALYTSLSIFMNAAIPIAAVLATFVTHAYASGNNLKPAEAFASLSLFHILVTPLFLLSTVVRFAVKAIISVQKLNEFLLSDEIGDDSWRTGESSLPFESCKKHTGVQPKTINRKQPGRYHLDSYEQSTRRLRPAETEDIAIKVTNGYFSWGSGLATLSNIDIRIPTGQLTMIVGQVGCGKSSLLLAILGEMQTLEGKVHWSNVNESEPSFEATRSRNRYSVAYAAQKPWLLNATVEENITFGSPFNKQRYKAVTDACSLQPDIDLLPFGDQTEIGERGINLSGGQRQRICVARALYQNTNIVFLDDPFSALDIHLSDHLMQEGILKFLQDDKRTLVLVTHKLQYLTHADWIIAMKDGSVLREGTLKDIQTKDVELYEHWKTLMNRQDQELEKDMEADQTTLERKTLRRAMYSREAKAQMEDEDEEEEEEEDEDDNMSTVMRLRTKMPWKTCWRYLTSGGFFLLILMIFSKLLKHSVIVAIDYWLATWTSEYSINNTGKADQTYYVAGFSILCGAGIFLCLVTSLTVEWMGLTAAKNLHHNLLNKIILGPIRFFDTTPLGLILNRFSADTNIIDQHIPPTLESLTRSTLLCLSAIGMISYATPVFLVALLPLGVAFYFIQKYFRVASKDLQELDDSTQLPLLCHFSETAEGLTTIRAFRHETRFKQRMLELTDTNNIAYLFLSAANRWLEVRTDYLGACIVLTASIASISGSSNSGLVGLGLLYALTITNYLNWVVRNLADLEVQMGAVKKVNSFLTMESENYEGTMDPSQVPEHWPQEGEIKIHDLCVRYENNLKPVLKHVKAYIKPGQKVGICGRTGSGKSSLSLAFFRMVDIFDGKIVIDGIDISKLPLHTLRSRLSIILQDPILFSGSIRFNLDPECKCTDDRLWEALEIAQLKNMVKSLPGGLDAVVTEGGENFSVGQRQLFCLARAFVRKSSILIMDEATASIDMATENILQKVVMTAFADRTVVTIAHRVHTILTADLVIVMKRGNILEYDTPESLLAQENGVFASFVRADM
T1 sequence (Q14654 whole entry partner): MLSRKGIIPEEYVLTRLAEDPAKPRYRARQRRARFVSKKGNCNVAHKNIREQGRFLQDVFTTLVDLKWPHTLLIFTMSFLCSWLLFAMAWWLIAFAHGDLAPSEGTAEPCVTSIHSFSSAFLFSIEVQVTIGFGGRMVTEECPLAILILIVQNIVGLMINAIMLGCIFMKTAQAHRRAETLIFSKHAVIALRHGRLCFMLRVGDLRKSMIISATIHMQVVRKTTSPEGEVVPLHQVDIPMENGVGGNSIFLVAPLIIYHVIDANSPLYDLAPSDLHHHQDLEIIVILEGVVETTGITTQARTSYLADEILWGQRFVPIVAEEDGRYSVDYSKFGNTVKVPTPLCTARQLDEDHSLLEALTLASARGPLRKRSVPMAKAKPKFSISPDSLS
Description: The ability of CKLP1 and the active moiety of CKLP1, leveromakalim, to pharmacologically modulate the function of the human ATP-sensitive potassium channel comprised of Kir6.2 (encoded by the human gene KCNJ11) coupled to the sulfonylurea receptor SUR2B (encoded by the human gene ABCC9) was studied.
Compounds were dissolved up to 10 mM stock solution in DMSO. Ten-point concentration response curves were generated at 100× concentration in 100% DMSO. Compound source plates were made by serially diluting 10 mM compound stocks in DMSO to generate a progressive semilog dilution schema. Dose response stock plate (10 μL) were then transferred into assay plates containing 90 μL of assay buffer, generating 10× working concentrations. Final assay test concentration ranges of 100 μM to 0.003 μM with a final DMSO concentration of 1.0%.
Human embryonic kidney (HEK) cells stably expressing human Kir6.2/SUR2B KATP channel subunits were plated onto 96 well, black poly-d-lysine (PDL)-coated microplates and maintained in growth media the day prior to use for experiments. Media was removed from the plates and 90 μL of 1× stock of the membrane potential sensitive fluorescent dye FMP-Blue resuspended in assay buffer (EBSS—in mM: NaCl 145, KCl 2, Glucose 5, CaCl2) 1.8, MgCl2 0.8, HEPES 10, pH 7.4 with NaOH, 290-300 mOSm) was added to the cells. Cells were incubated at room temperature, protected from light, for 45-60 minutes. After the incubation period, cell, test compound and glibenclamide plates were loaded onto the fluorescence plate reader (FLIPR-TETRA™) and the scanning initiated. The FLIPR measured a 10 second baseline and then added 10 μL of 10× the final desired concentration of test agent. Changes in fluorescence were monitored for an additional 5 minutes. After the 5-minute compound incubation, 10 μL of the receptor inhibitor glibenclamide was added to the cell plate (10 uM final glibenclamide concentration). Changes in fluorescence was then monitored for an additional 5 minutes.
Compound modulation of Kir6.2/SUR2B KATP channel mediated changes in cellular membrane potential was determined as follows. After the administration of compound, FMP fluorescence was monitored for a 5-minute period. The following parameters were recorded and exported from the FLIPR: the average relative fluorescence response (RFU) of 5 images taken at the 5-minute point in the assay with the average background EBSS buffer response subtracted. […] Test agent effect was calculated as % activation using the following formula: […]
Curve fits were performed in GraphPad Prism graphing software using a 4-parameter, variable slope fit equation.

[3] = cited from earlier work
single KATP channels = conditions: in the presence of ATP; Brayden et al. 1991; cited from earlier work

Row | Structure (SMILES) | expression of the cell adhesion proteins CD31 and VE-Cadherin [1] | expression of the cell adhesion proteins CD31 and VE-Cadherin ([1]; listed as Y27632) | hyperpolarization reversed by coadministration of glibenclamide [2] | solubility in water [3] | increase of open-state probability (Popen) of single KATP channels (single KATP channels)
1 | C[C@@H](N)[C@H]1CC[C@H](C(=O)Nc2ccncc2)CC1 [Y-27632] | significantly decreased | decreased expression | – | – | –
2 | CC1(C)Oc2ccc(C#N)cc2C(N2CCCC2=O)C1O (stereo not drawn) [Cromakalim, cromakalim] | – | – | reversed | substantially insoluble in water | more than 9 fold
3 | CC(N/C(=N\C#N)Nc1ccncc1)C(C)(C)C (stereo not drawn) [Pinacidil, pinacidil, reference compound] | – | – | reversed | – | –

— patent publication US20220387457A1 (Qlaris Bio, Inc., priority 2020, published 2022)
